Reference: patent US7476691B2, “Sulfamate benzothiophene derivatives as steroid sulfatase inhibitors” (Laboratoire Theramex, priority 2003, dated 2009)

Columns and labels:
[1] = tested on: ovariectomized Wistar female rats; assay: Antiuterotrophic/antisulfatase activity: inhibition of E1S stimulated uterus weight; assay type: in vivo, rat
Protocol: A short model, derived from Purohit's method, was developed for the evaluation in vivo of nonestrogenic steroid sulfatase inhibitors.
Wistar female rats were ovariectomized and left to rest for 4 weeks. Prior to treatment, the absence of cyclicity was checked by vaginal smears.
Animals were supplemented with estrone sulfate (E1S) at 50 μg/kg/day s.c., alone or combined with oral administration of potential sulfatase inhibitors, at 1 mg/kg/day for 4 days. The uteri were removed, freed of adjacent tissue and wet weighed.
The results are expressed as % of inhibition of the E1S induced stimulation.
The activity of Ex 55 on E1S stimulated uterus weight was evaluated in relation to the standard inhibitor 6,6,7 COUMATE from 0.03 mg/kg/day to 1 mg/kg/day p.o.
In this study, a last administration was performed 24 hours before the necropsy for E1S and E2 serum levels assays. The uteri were removed, freed of adjacent tissue, wet weighed and immediately deep frozen until the determination of sulfatase activity.

estrone sulfatase = target: T1, estrone sulfatase (Homo sapiens, UniProt P08842); assay: Estrone sulfatase whole-cell assay on JEG-3 cells; assay type: cell-based; set-up: The JEG-3 cell line, derived from a human placental choriocarcinoma, is spontaneously very rich in human estrone sulfatase; endogenous in cells; host or cells: JEG-3 (human placental choriocarcinoma), intact cells; details: 4 h treatment, 3H-E1S, read-out: IC50 (nM) ± S.E.M., inhibition of estrone sulfatase
T1 sequence (P08842 22-583): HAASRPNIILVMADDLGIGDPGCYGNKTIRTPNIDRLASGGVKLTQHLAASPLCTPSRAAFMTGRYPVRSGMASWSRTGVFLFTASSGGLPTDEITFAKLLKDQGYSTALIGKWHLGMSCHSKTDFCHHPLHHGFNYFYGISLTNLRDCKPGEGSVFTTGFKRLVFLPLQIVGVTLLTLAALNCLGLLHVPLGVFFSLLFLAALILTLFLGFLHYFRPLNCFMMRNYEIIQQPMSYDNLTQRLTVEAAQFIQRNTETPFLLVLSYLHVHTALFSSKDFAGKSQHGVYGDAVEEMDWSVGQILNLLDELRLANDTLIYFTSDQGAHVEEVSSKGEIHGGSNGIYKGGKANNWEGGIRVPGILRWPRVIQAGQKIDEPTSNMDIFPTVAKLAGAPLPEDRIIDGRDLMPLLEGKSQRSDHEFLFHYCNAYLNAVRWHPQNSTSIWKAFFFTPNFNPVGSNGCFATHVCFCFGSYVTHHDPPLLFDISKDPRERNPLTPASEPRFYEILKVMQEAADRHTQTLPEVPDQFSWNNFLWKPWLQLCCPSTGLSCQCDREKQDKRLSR
Protocol: Two in vitro models on whole cells were used. […] Moreover, these cells were used in the in vivo model of hormono-dependent induced xenografts.
Estrone Sulfatase Assay on Cells
Whole-cell assays were performed as originally described by Duncan et al. (Cancer Res., 1993, 53: 298-303) on intact MCF-7 cell monolayers. Assays were carried out with cells in logarithmic growth phase, on 96-well (JEG-3) or 24-well (MCF-7) microplates. Twenty-four hours (JEG-3) or 72 h (MCF-7) before studies, cells were seeded in decomplemented fetal calf serum (dFCS) supplemented medium. Then, the seeding medium was removed and the cells were rinsed with PBS to eliminate any trace of dFCS. Then, ^3H-E1S was added, followed by test compounds ranging from 10^−12 M to 10^−5 M. After 4 h (JEG-3) or 20 h (MCF-7) of treatment, the medium was transferred into either 96-deep-well microplates (JEG-3) or plastic tubes (MCF-7) and centrifuged at 200×g for 10 min to pellet cells before toluene extraction. A fraction of medium was used for toluene extraction in order to separate conjugated substrate and non-conjugated products. The radioactivity in the toluene phase was measured by liquid scintillation counting (LSC). Finally, estrone sulfatase activity was expressed in pmoles of ^3H-E1+^3H-E2 formed per 4 or 20 hours and per μg DNA and estrone sulfatase inhibition in percentage of control activity without inhibitor.

MCF-7 cells = assay: Hormono-dependent induced MCF-7 xenografts: volume and weight; assay type: in vivo, mice; details: oral 0.1 mg/kg/day for 6 weeks
Protocol: MCF-7 cells, derived from human breast adenocarcinoma, were injected subcutaneously in ovariectomized athymic nude mice supplemented with estrone sulfate (pellets 0.5 mg/90 day release). Xenograft volumes were determined once weekly. When tumor volumes reached a significant increase, 6,6,7 COUMATE and Ex 55 were orally administered at 0.1 mg/kg/day for 6 weeks.
Xenografts were measured, removed, weighed, and deep frozen until the determination of steroid sulfatase activity.

[2] = MCF-7 xenografts, nude mice with E1S pellet

IC50 (estrone sulfatase): 7.7 ± 0.4 nM
Structure (SMILES): NS(=O)(=O)Oc1ccc2c(c1)S(=O)(=O)C(CC1CCCCCC1)=C2 [Ex 55, Sulfamic acid, 2-cycloheptylmethyl-benzothiophene-6-yl-1,1-dioxide ester]
Inhibition of E1S stimulated uterus weight ([1]; 0.03 mg/kg/day p.o.): 0% | Inhibition of E1S stimulated uterus weight ([1]; 0.1 mg/kg/day p.o.): 0% | Inhibition of E1S stimulated uterus weight ([1]; 0.3 mg/kg/day p.o.): 36% | Inhibition of E1S stimulated uterus weight ([1]; 1 mg/kg/day p.o.): 72% | % inhibition of the E1S induced stimulation (uterus weight) ([1]; ovariectomized rats, E1S 50 μg/kg/day s.c., compound oral 1 mg/kg/day for 4 days): 81% | inhibition of E1S stimulated uterus weight (in words) ([1]; summary of the antiuterotrophic assay): significant inhibition | Xenograft volume after 6 week treatment (MCF-7 cells; [2]): 1488 ± 233 mm^3 | Xenograft weight after 6 week treatment (MCF-7 cells; [2]): 877 ± 185 mg | inhibition of the E1S induced stimulation (xenograft volume) (MCF-7 cells): 18% | inhibition of xenograft weight (MCF-7 cells): 35%
